{"source": "ChEMBL document CHEMBL5370660", "about": "“Design of a Supersoft Topical JAK Inhibitor, Which Is Effective in Human Skin but Rapidly Deactivated in Blood” (J Med Chem, 2023)", "key": {"[1]": {"assay": "Drug metabolism in rat assessed as excretion of 2-(6-((5-carbamoyl-4-((2-methoxyphenyl)amino)pyridin-2-yl)amino)pyridin-3-yl)acetic acid metabolite by measuring half life", "assay_type": "ADME"}, "[2]": {"assay": "Stability in human whole blood assessed as half life at 1 uM incubated upto 8 hrs by LC-MS/MS analysis", "assay_type": "ADME, tissue-based"}, "[3]": {"assay": "Drug penetration in fresh human skin explant using Franz diffusion cell model assessed as concentration of 2-(6-((5-carbamoyl-4-((2-methoxyphenyl)amino)pyridin-2-yl)amino)pyridin-3-yl)acetic acid metabolite in receiver fluid at 3 % administered topically preincubated overnight followed by fresh media replacement in receiver fluid without compound and subsequently stimulated with IL-4/IL-13 measured after 24 hrs by LC-MS/MS analysis", "assay_type": "ADME, tissue-based, Skin of body", "conditions": "topical_or_ocular"}, "[4]": {"target": "Tyrosine-protein kinase JAK1 (Homo sapiens, UniProt P23458)", "sequence (P23458 whole entry, the tested form may be a part)": "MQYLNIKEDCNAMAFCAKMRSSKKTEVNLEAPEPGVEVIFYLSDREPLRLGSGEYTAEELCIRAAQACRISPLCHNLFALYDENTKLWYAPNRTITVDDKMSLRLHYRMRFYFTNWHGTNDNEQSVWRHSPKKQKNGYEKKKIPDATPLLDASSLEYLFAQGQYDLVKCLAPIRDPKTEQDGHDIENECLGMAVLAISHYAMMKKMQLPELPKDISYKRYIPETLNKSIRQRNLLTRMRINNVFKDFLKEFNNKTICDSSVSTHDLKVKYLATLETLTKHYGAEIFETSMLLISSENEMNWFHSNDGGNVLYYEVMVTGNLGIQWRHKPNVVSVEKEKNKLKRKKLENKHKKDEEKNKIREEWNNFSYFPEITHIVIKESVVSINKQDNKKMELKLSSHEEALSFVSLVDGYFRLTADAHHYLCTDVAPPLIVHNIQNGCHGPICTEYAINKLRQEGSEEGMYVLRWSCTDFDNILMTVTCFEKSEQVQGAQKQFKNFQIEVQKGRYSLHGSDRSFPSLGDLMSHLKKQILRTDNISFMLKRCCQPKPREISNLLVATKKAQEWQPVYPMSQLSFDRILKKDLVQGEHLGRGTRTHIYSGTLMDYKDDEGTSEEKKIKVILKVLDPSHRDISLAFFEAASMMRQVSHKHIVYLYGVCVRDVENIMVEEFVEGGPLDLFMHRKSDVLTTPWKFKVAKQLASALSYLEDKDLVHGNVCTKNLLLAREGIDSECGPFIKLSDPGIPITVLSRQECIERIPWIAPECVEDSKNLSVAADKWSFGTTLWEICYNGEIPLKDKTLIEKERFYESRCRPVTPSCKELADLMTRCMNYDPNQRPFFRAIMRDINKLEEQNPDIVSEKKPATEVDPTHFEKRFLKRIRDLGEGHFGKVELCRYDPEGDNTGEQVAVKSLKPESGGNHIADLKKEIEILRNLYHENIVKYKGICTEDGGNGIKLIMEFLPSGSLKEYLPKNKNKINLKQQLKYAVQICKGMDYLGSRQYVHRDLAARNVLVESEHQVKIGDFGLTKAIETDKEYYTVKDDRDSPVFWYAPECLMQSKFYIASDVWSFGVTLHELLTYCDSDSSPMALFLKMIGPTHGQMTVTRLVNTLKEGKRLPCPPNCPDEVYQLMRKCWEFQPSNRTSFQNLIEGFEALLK", "assay": "Inhibition of GST-fused JAK1 (866 to 1154 residues)(unknown origin) using FITC-Ahr-KKSRGDYMTMQIG-NH2 peptide as substrate incubated for 30 mins in presence of ATP by caliper microfluidic mobility shift assay"}, "[5]": {"assay": "Stability of compound under light stress assessed as compound decomposition under sunlight with intensity of 4000 KJ/m2, irradiation of 250 W/m2, wavelength of >290 nm, temperature of 37 degreeC for 4 hrs using crystalline form of sample", "assay_type": "ADME", "conditions": "read-out: Drug degradation"}, "[6]": {"target": "T1, Mitogen-activated protein kinase kinase kinase 2 (Homo sapiens, UniProt Q9Y2U5)", "T1 sequence (Q9Y2U5 whole entry)": "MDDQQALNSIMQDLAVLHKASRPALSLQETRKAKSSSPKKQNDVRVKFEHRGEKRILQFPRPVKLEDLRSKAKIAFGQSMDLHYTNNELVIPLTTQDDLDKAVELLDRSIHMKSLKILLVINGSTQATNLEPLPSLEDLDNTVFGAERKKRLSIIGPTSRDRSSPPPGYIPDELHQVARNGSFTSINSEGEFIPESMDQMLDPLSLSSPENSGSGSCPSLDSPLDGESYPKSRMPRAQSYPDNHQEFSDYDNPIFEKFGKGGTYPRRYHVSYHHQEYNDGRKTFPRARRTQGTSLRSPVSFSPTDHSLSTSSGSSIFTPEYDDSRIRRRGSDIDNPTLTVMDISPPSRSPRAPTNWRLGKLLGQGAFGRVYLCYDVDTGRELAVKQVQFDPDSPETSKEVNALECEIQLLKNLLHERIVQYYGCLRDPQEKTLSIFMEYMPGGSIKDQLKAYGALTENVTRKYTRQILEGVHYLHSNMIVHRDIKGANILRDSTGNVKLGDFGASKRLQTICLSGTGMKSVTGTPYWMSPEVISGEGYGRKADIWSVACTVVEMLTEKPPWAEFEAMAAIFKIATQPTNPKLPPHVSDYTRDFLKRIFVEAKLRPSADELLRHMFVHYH", "assay": "Inhibition of MAP3K2 (unknown origin)"}, "[7]": {"assay": "Lipophilicity, LogD of compound", "assay_type": "physicochemical", "conditions": "octanol/water"}, "[8]": {"target": "Tyrosine-protein kinase JAK2 (Homo sapiens, UniProt O60674)", "sequence (O60674 whole entry, the tested form may be a part)": "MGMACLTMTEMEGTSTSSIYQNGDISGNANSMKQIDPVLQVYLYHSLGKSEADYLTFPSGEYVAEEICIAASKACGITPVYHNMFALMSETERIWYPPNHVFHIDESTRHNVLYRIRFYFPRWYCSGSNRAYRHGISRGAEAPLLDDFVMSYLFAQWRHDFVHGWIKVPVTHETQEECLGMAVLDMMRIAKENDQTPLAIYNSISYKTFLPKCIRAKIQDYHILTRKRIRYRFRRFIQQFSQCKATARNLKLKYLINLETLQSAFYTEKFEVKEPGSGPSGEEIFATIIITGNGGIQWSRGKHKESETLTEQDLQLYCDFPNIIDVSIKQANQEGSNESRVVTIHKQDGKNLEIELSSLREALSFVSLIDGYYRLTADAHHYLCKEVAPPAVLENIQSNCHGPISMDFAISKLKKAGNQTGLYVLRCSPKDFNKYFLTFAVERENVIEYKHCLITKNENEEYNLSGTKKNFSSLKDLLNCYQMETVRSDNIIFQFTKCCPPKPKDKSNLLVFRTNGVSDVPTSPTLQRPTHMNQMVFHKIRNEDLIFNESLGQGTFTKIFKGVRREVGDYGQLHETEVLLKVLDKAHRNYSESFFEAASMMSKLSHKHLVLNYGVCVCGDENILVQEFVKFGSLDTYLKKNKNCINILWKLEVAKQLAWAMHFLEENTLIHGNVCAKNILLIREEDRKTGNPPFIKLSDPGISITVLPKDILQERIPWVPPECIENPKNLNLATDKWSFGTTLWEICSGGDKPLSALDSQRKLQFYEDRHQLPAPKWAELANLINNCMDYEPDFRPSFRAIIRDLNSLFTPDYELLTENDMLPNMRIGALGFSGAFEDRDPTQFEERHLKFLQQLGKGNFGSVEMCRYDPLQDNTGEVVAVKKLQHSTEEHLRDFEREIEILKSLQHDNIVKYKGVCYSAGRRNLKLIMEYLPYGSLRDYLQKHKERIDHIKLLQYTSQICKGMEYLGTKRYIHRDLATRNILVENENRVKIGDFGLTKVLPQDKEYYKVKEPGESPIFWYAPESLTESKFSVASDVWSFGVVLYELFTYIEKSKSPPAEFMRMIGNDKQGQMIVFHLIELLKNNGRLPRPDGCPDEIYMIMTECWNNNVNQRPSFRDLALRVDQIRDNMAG", "assay": "Inhibition of GST-fused JAK2 (808 to 1132 residues)(unknown origin) using Carboxyfluorescein-Ahx-GGEEEEYFELVKKKK peptide as substrate incubated for 30 mins in presence of ATP by caliper microfluidic mobility shift assay"}}}
{"smiles": "COC[C@@H](C)OC(=O)Cc1ccc(Nc2cc(Nc3ccccc3OC)c(C(N)=O)cn2)nc1", "values": [{"measurement": "t1/2", "setting": "[1]", "result": "< 20", "unit": "min"}, {"measurement": "half-life at 1 µM", "setting": "[2]", "result": 6, "unit": "min"}, {"measurement": "Drug uptake", "setting": "[3]", "result": 0.223, "unit": "µM"}, {"measurement": "IC50", "setting": "[4]", "result": 5, "unit": "nM"}, {"measurement": "degraded at 4 h", "setting": "[5]", "result": 0.1, "unit": "%"}, {"measurement": "IC50", "setting": "[6]", "result": "< 100", "unit": "nM"}, {"measurement": "logD", "setting": "[7]", "result": 3.3}, {"measurement": "IC50", "setting": "[8]", "result": 5, "unit": "nM"}]}
